For assay [1], the target named is T1, 5-hydroxytryptamine receptor 1A (Homo sapiens, UniProt P08908).
T1 sequence (P08908 whole entry): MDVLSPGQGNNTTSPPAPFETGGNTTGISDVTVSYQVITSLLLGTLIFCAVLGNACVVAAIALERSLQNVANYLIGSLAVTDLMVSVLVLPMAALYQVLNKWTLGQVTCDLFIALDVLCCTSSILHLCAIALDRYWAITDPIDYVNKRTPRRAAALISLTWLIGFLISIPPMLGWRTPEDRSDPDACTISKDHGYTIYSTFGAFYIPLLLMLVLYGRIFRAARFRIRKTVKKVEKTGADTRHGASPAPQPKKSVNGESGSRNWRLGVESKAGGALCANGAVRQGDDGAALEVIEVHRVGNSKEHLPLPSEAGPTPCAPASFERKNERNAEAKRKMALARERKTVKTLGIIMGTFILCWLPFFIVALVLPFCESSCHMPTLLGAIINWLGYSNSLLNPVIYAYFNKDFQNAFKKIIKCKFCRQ
In kind it is functional, cell-based.

In a further assay the target is Cannabinoid receptor 1 (Homo sapiens, UniProt P21554). It counts as functional, cell-based.
For assay [2], the target named is T2, 5-hydroxytryptamine receptor 2B (Homo sapiens, UniProt P41595). It counts as functional, cell-based.
In assay [3] the target is T3, Alpha-1A adrenergic receptor (Homo sapiens, UniProt P35348).
T3 sequence (P35348 whole entry): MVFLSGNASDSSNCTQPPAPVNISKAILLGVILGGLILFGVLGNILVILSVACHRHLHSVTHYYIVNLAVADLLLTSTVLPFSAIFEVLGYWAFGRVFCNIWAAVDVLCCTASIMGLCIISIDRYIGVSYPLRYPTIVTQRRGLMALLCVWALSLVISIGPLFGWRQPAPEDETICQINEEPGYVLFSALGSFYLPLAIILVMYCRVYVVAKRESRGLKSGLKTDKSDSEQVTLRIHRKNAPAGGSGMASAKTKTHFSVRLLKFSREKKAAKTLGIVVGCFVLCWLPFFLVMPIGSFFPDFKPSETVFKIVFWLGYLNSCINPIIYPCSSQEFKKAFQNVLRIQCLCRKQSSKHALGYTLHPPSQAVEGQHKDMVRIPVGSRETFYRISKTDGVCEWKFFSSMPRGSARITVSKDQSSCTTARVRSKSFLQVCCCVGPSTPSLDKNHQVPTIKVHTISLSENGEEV
It counts as functional, cell-based.

Assay [4] addresses T2, 5-hydroxytryptamine receptor 2B. It counts as functional, cell-based. The source holds these as a separate data set.
The target of assay [5] is T4, Alpha-2A adrenergic receptor (Homo sapiens, UniProt P08913).
T4 sequence (P08913 whole entry): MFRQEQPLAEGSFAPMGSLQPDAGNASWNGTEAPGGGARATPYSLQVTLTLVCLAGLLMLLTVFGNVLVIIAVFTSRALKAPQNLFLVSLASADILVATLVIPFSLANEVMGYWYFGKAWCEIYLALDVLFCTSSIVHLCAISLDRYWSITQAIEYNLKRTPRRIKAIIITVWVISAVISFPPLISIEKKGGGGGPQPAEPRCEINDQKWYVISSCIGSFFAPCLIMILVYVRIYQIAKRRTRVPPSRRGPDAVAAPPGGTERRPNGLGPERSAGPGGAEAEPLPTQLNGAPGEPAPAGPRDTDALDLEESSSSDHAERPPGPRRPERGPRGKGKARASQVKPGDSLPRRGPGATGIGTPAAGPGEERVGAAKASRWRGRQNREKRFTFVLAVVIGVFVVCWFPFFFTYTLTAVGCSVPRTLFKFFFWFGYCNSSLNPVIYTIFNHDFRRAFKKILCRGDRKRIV
It counts as functional, cell-based.

Assay [6] addresses T3, Alpha-1A adrenergic receptor. In kind it is functional, cell-based. The source holds these as a separate data set.
Assay [7] addresses T5, Alpha-2C adrenergic receptor (Homo sapiens, UniProt P18825).
T5 sequence (P18825 whole entry): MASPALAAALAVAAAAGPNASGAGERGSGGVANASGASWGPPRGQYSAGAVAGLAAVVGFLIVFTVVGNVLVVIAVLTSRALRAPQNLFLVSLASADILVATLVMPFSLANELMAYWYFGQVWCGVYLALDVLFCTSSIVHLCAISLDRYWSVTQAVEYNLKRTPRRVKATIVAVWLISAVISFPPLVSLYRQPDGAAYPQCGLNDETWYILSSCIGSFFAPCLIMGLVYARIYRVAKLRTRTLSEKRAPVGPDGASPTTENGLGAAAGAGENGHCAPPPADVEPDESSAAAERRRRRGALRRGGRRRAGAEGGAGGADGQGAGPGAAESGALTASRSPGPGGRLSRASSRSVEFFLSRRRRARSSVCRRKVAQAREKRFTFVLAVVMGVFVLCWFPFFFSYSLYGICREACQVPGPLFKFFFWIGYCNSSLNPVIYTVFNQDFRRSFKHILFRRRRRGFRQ
In kind it is functional.

In assay [8] the target is T2, 5-hydroxytryptamine receptor 2B. In kind it is functional, cell-based. This is another data set of the same source.
Assay [9] addresses T6, 5-hydroxytryptamine receptor 2C (Homo sapiens, UniProt P28335).
T6 sequence (P28335 whole entry): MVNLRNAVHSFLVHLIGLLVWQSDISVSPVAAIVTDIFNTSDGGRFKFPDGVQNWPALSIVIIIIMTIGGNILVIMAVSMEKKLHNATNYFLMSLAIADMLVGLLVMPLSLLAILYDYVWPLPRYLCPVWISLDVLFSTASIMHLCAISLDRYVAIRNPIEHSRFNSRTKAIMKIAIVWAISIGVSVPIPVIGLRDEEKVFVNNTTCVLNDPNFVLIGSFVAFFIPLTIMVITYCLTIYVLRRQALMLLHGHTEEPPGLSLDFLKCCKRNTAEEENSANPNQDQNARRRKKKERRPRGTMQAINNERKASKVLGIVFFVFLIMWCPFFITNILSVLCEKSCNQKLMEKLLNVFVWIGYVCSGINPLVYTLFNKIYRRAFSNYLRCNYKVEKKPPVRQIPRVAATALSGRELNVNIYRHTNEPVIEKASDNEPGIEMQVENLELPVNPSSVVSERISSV

Where only a bound is given, the exact number is not on record here.
Also: assay procedure not described here.

T2 sequence (P41595 whole entry): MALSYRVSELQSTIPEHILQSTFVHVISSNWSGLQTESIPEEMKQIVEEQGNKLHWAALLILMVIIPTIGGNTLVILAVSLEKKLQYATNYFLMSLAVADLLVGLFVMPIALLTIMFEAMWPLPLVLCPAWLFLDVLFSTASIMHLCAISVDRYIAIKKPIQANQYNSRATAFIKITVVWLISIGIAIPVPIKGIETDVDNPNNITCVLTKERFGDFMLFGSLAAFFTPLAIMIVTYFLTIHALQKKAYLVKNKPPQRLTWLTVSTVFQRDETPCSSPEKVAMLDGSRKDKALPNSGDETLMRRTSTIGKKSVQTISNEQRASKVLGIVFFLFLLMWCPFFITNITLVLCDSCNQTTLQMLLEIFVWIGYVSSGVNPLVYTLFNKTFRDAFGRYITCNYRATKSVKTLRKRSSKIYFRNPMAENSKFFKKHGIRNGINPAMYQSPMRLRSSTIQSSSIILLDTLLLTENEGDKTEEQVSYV
Sequence of Cannabinoid receptor 1 (P21554 whole entry): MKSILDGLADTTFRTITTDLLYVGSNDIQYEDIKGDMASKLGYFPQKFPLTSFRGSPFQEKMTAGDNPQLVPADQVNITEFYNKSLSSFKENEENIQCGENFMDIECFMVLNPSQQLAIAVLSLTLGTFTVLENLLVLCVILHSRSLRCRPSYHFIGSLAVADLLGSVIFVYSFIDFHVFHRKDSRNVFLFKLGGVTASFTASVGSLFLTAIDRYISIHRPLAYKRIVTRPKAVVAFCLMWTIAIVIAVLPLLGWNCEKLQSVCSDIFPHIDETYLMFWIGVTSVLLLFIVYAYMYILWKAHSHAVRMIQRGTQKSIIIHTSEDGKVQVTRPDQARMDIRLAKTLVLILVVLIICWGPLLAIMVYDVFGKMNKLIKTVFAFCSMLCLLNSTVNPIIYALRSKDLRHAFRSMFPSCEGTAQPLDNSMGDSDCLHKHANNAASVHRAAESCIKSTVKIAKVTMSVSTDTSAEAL

What is called AC50 is the concentration giving half of the maximal activity seen. A low value points to greater potency. For `O=C(Nc1ccccc1)OCC(CN1CCCCC1)OC(=O)Nc1ccccc1` (stereo not drawn) [DIPERODON], the AC50 is greater than 10 µM in [1]; greater than 30 µM at Cannabinoid receptor 1; greater than 30 µM in assay [2]; greater than 30 µM in assay [3]; 15 µM in [4]; greater than 10 µM in assay [5]. For the same compound, the AC50 was greater than 30 µM in assay [6], greater than 10 µM in assay [7], greater than 10 µM in assay [8] and greater than 10 µM in assay [9].
For `O=C1CCC(N2C(=O)c3ccccc3C2=O)C(=O)N1` (stereo not drawn) [THALIDOMIDE], the AC50 was greater than 10 µM in [1]; greater than 30 µM at Cannabinoid receptor 1; greater than 30 µM in [2]; greater than 30 µM in [3]; greater than 10 µM in assay [4]; greater than 10 µM in [5]. For the same compound, the AC50 in [6] was greater than 30 µM; in assay [7] it was greater than 10 µM; in assay [8], greater than 10 µM; in assay [9], greater than 30 µM.
As for `O=C(O)CCn1c2c(c3ccccc31)C[C@H](NS(=O)(=O)c1ccc(F)cc1)CC2` [RAMATROBAN], the AC50 in [1] is greater than 10 µM; in assay [2], greater than 30 µM; in assay [4] it was greater than 10 µM; in assay [5], greater than 10 µM; in [6] it was greater than 30 µM; in assay [7], greater than 10 µM. The AC50 in assay [8] is greater than 10 µM; in assay [9], greater than 30 µM.

The record behind these values is ChEMBL document CHEMBL5291721, “A preclinical secondary pharmacology resource illuminates target-adverse drug reaction associations of marketed drugs” (Nat Commun, 2023).
